The CheMixHub viscosity set

Assay: xn = mol fraction of the nth substance listed

Cc1ccccc1 + CCO
Details	viscosity [mPa·s]
293.2 K, 101.32 kPa, x2 = 0.05	0.568
293.2 K, 101.32 kPa, x2 = 0.136	0.587
293.2 K, 101.32 kPa, x2 = 0.28	0.616
293.2 K, 101.32 kPa, x2 = 0.55	0.731
293.2 K, 101.32 kPa, x2 = 0.735	0.861
303 K, 101 kPa, x1 = 0.1006	0.821
303 K, 101 kPa, x1 = 0.2012	0.786
303 K, 101 kPa, x1 = 0.3009	0.724
303 K, 101 kPa, x1 = 0.3981	0.686
303 K, 101 kPa, x1 = 0.5016	0.643
303 K, 101 kPa, x1 = 0.6052	0.613
303 K, 101 kPa, x1 = 0.7001	0.602
303 K, 101 kPa, x1 = 0.8095	0.569
303 K, 101 kPa, x1 = 0.9011	0.551
303 K, 101.33 kPa, x2 = 0.3333	0.574
303 K, 101.33 kPa, x2 = 0.5714	0.651
303 K, 101.33 kPa, x2 = 0.75	0.774
303 K, 101.33 kPa, x2 = 0.8889	0.927
303.15 K, 101.33 kPa, x1 = 0.0692	0.893
303.15 K, 101.33 kPa, x1 = 0.1849	0.803
303.15 K, 101.33 kPa, x1 = 0.3191	0.699
303.15 K, 101.33 kPa, x1 = 0.5285	0.596
303.15 K, 101.33 kPa, x1 = 0.5858	0.575
303.15 K, 101.33 kPa, x1 = 0.6901	0.546
303.15 K, 101.33 kPa, x1 = 0.7906	0.527
303.15 K, 101.33 kPa, x1 = 0.8565	0.519
303.15 K, 101.33 kPa, x1 = 0.9213	0.524
308.15 K, 101.33 kPa, x1 = 0.0692	0.814
308.15 K, 101.33 kPa, x1 = 0.1849	0.736
308.15 K, 101.33 kPa, x1 = 0.3191	0.642
308.15 K, 101.33 kPa, x1 = 0.5285	0.552
308.15 K, 101.33 kPa, x1 = 0.5858	0.533
308.15 K, 101.33 kPa, x1 = 0.6901	0.507
308.15 K, 101.33 kPa, x1 = 0.7906	0.491
308.15 K, 101.33 kPa, x1 = 0.8565	0.486
308.15 K, 101.33 kPa, x1 = 0.9213	0.493
313 K, 101.33 kPa, x2 = 0.3333	0.504
313 K, 101.33 kPa, x2 = 0.5714	0.557
313 K, 101.33 kPa, x2 = 0.75	0.654
313 K, 101.33 kPa, x2 = 0.8889	0.778
323 K, 101.33 kPa, x2 = 0.3333	0.446
323 K, 101.33 kPa, x2 = 0.5714	0.479
323 K, 101.33 kPa, x2 = 0.75	0.557
323 K, 101.33 kPa, x2 = 0.8889	0.648

C1CCOC1 + CCOC(C)=O
101.32 kPa
Details	viscosity [mPa·s]
303.15 K, x2 = 0.0431	0.443
303.15 K, x2 = 0.0837	0.437
303.15 K, x2 = 0.128	0.434
303.15 K, x2 = 0.1718	0.431
303.15 K, x2 = 0.2625	0.425
303.15 K, x2 = 0.3504	0.421
303.15 K, x2 = 0.4521	0.416
303.15 K, x2 = 0.6544	0.41
303.15 K, x2 = 0.8229	0.407
303.15 K, x2 = 0.8817	0.407
303.15 K, x2 = 0.9396	0.406
313.15 K, x2 = 0.2044	0.384
313.15 K, x2 = 0.4059	0.375
313.15 K, x2 = 0.5072	0.373
313.15 K, x2 = 0.6002	0.37
313.15 K, x2 = 0.7996	0.369

Cc1ccccc1 + CCCCCCC
298.15 K, 101 kPa
Details	viscosity [mPa·s]
x2 = 0.4771	0.4775
x2 = 0.4859	0.476
x2 = 0.4953	0.474
x2 = 0.4983	0.4735
x2 = 0.4996	0.473
x2 = 0.5045	0.472
x2 = 0.5106	0.471
x2 = 0.5179	0.47
x2 = 0.5212	0.469
x2 = 0.5328	0.467
x2 = 0.5408	0.4655
x2 = 0.55	0.464
x2 = 0.561	0.4615
x2 = 0.579	0.458
x2 = 0.603	0.4535
